Reference: PubChem BioAssay AID328 (DTP/NCI, 2004)
Where “and” joins values, the source holds several entries; their conditions need not be identical. Identical values can stand only once. Inconclusive results and toxic doses are left out. Rule for the calls: active = survival T/C of 150% or more; inactive = T/C below 125% in these data. Residues, ends and D or L forms follow the SMILES beside them. *: point of attachment. For = O=C*

Tested on: BDF1 mice, P388 leukemia ip, median survival T/C
Test: NCI In Vivo Anticancer Drug Screen. Data for tumor model P388 Leukemia (intraperitoneal) in B6D2F1 (BDF1) mice
Conditions: endpoint: median survival time, higher = longer survival
Summary of the method: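 Compound-treated tumour-bearing mice were compared with vehicle-treated controls. Survival was recorded, and the value is the treated-group measurement divided by the control-group measurement (T/C).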

[1] = dose: 25.0 mg/kg/injection, schedule: Q01DX009 (ip), vehicle: Klucel (hydroxypropylcellulose) (HPC)
[2] = dose: 50.0 mg/kg/injection, schedule: Q01DX009 (ip), vehicle: Klucel (hydroxypropylcellulose) (HPC)
[3] = dose: 50.0 mg/kg/injection, schedule: Q01DX009 (ip), vehicle: saline with Tween-80
[4] = dose: 100.0 mg/kg/injection, schedule: Q01DX009 (ip), vehicle: saline with Tween-80
[5] = dose: 200.0 mg/kg/injection, schedule: Q01DX009 (ip), vehicle: saline with Tween-80
[6] = dose: 25.0 mg/kg/injection, schedule: Q01DX009 (ip), vehicle: saline with Tween-80
[7] = dose: 50.0 mg/kg/injection, schedule: Q01DX009 (ip), vehicle: saline
[8] = dose: 50.0 mg/kg/injection, schedule: Q04DX003 (ip), vehicle: saline with Tween-80
[9] = dose: 100.0 mg/kg/injection, schedule: Q04DX003 (ip), vehicle: saline with Tween-80
[10] = dose: 100.0 mg/kg/injection, schedule: Q01DX009 (ip), vehicle: Klucel (hydroxypropylcellulose) (HPC)
[11] = dose: 200.0 mg/kg/injection, schedule: Q04DX003 (ip), vehicle: saline with Tween-80
[12] = dose: 400.0 mg/kg/injection, schedule: Q04DX003 (ip), vehicle: saline with Tween-80
[13] = dose: 12.5 mg/kg/injection, schedule: Q04DX003 (ip), vehicle: saline with Tween-80
[14] = dose: 25.0 mg/kg/injection, schedule: Q04DX003 (ip), vehicle: saline with Tween-80
[15] = dose: 200.0 mg/kg/injection, schedule: Q01DX009 (ip), vehicle: Klucel (hydroxypropylcellulose) (HPC)
[16] = dose: 3.12 mg/kg/injection, schedule: Q01DX009 (ip), vehicle: water
[17] = dose: 3.12 mg/kg/injection, schedule: Q04DX003 (ip), vehicle: water
[18] = dose: 6.25 mg/kg/injection, schedule: Q04DX003 (ip), vehicle: water
[19] = dose: 12.5 mg/kg/injection, schedule: Q01DX009 (ip), vehicle: water
[20] = dose: 12.5 mg/kg/injection, schedule: Q04DX003 (ip), vehicle: water
[21] = dose: 25.0 mg/kg/injection, schedule: Q01DX009 (ip), vehicle: water
[22] = dose: 25.0 mg/kg/injection, schedule: Q04DX003 (ip), vehicle: water
[23] = dose: 50.0 mg/kg/injection, schedule: Q01DX009 (ip), vehicle: water

Measured: T/C

CCC(=O)NC1=CC(=O)c2ccccc2C1=O
inactive: dose: 12.5 mg/kg/injection, schedule: Q01DX009 (ip), vehicle: Klucel (hydroxypropylcellulose) (HPC) 109 % of control | [1] 109 % of control | [2] 122 % of control

CCN1CC2(CO)CCC(OC)C34C5CC6C(OC)CC(O)(C5C6OC)C(O)(C(OC)C23)C14 (configuration not stated)
inactive: [3] 100 % of control | [4] 103 % of control | [5] 100 % of control

O=C(CC(O)(C(F)(F)F)C(F)(F)F)c1ccco1
inactive: dose: 17.0 mg/kg/injection, schedule: Q01DX009 (ip), vehicle: saline 100 % of control | [6] 123 % of control | dose: 33.0 mg/kg/injection, schedule: Q01DX009 (ip), vehicle: saline 100 % of control | [7] 100 % of control | [8] 120 % of control | dose: 75.0 mg/kg/injection, schedule: Q01DX009 (ip), vehicle: saline 100 % of control | [4] 123 % of control | [9] 120 % of control

CC/C(=C(\c1ccccc1)c1ccc(OCCN(C)C)cc1)c1ccccc1
inactive: [1] 122 % of control | [2] 122 % of control | [10] 102 % of control and 108 % of control

CCCCCCCCCCCCNC(=O)CC(O)(CC(=O)O)C(=O)O (configuration not stated)
inactive: dose: 25.0 mg/kg/injection, schedule: Q04DX003 (ip), vehicle: Klucel (hydroxypropylcellulose) (HPC) 111 % of control | dose: 50.0 mg/kg/injection, schedule: Q04DX003 (ip), vehicle: Klucel (hydroxypropylcellulose) (HPC) 88 % of control | dose: 100.0 mg/kg/injection, schedule: Q04DX003 (ip), vehicle: Klucel (hydroxypropylcellulose) (HPC) 92 % of control

c1ccc(CCSc2ccccc2)cc1
inactive: [9] 113 % of control | [11] 109 % of control | [12] 118 % of control

O/N=C/c1ccccc1O.O/N=C/c1ccccc1O.[Cu]
inactive: dose: 6.25 mg/kg/injection, schedule: Q04DX003 (ip), vehicle: saline with Tween-80 118 % of control | [13] 109 % of control | dose: 16.5 mg/kg/injection, schedule: Q04DX003 (ip), vehicle: saline with Tween-80 114 % of control | [14] 123 % of control

Cc1cc2nc(CO)[nH]c2cc1C
inactive: [10] 100 % of control | [15] 86 % of control | dose: 400.0 mg/kg/injection, schedule: Q01DX009 (ip), vehicle: Klucel (hydroxypropylcellulose) (HPC) 95 % of control

Cc1ccc(OCc2c(COc3ccc(Cl)cc3)sc3ccc(Cl)cc23)cc1
inactive: [13] 95 % of control | [14] 87 % of control

COc1cc2ccc3c(c2cc1OC)N(C)C(OC)c1cc2c(cc1-3)OCO2 (configuration not stated)
inactive: dose: 20.0 mg/kg/injection, schedule: Q01DX009 (ip), vehicle: water 104 % of control | dose: 240.0 mg/kg/injection, schedule: Q01DX009 (ip), vehicle: water 95 % of control

Nc1nc(N)c2cc(CNc3ccc(C(=O)NC(CC(=O)O)CC(=O)O)cc3)cnc2n1
inactive: [9] 101 % of control | [11] 113 % of control | dose: 300.0 mg/kg/injection, schedule: Q04DX003 (ip), vehicle: saline with Tween-80 86 % of control

CCCCNc1c(OC)ccc2c(C)c3[n+](cc12)CCc1cc(OC)c(OC)cc1-3
inactive: dose: 1.56 mg/kg/injection, schedule: Q04DX003 (ip), vehicle: water 103 % of control | dose: 3.13 mg/kg/injection, schedule: Q04DX003 (ip), vehicle: water 103 % of control

Cc1cc(CC(Cl)(C(F)(F)F)C(F)(F)F)cc(CC(Cl)(C(F)(F)F)C(F)(F)F)n1
inactive: dose: 6.25 mg/kg/injection, schedule: Q01DX009 (ip), vehicle: saline with Tween-80 110 % of control | dose: 12.5 mg/kg/injection, schedule: Q01DX009 (ip), vehicle: saline with Tween-80 105 % of control | [13] 90 % of control | [6] 110 % of control | [14] 90 % of control | [8] 113 % of control

C/C(=C\COc1ccc2ccc(=O)oc2c1)C1=CC(=O)C(C)(C)O1
inactive: [1] 93 % of control | [2] 94 % of control | dose: 100.0 mg/kg/injection, schedule: Q01DX001 (ip), vehicle: saline with Tween-80 100 % of control | [10] 87 % of control | [4] 115 % of control | dose: 200.0 mg/kg/injection, schedule: Q01DX001 (ip), vehicle: saline with Tween-80 103 % of control | [15] 95 % of control | dose: 400.0 mg/kg/injection, schedule: Q01DX001 (ip), vehicle: saline with Tween-80 100 % of control

O=C1OC(=O)C2C3C=CC(C4C=CC43)C12 (configuration not stated)
inactive: dose: 12.5 mg/kg/injection, schedule: Q04DX003 (ip), vehicle: saline 101 % of control | dose: 25.0 mg/kg/injection, schedule: Q01DX009 (ip), vehicle: saline 97 % of control | dose: 25.0 mg/kg/injection, schedule: Q04DX003 (ip), vehicle: saline 104 % of control | [7] 97 % of control | dose: 50.0 mg/kg/injection, schedule: Q04DX003 (ip), vehicle: saline 111 % of control and 124 % of control | dose: 100.0 mg/kg/injection, schedule: Q04DX003 (ip), vehicle: saline 92 % of control and 106 % of control | dose: 200.0 mg/kg/injection, schedule: Q01DX009 (ip), vehicle: saline 86 % of control | dose: 200.0 mg/kg/injection, schedule: Q04DX003 (ip), vehicle: saline 111 % of control and 119 % of control | dose: 400.0 mg/kg/injection, schedule: Q01DX009 (ip), vehicle: saline 100 % of control | dose: 400.0 mg/kg/injection, schedule: Q04DX003 (ip), vehicle: saline 109 % of control

CC(=O)NN(c1ccc([N+](=O)[O-])cc1)c1ccc([N+](=O)[O-])cc1
inactive: [1] 109 % of control | [2] 109 % of control | [10] 100 % of control

COC(=O)C(CC(C)C)NC(=O)C(Cc1ccc(O)cc1)NC=O (stereo not drawn) (For-Tyr-Leu-OMe; configuration not given here)
inactive: [4] 99 % of control | [9] 105 % of control | [5] 115 % of control | [11] 110 % of control | dose: 400.0 mg/kg/injection, schedule: Q01DX009 (ip), vehicle: saline with Tween-80 106 % of control | [12] 112 % of control

CS(=O)(=O)OCc1c(O)c2c(c(O)c1COS(C)(=O)=O)C(=O)C=CC2=O
inactive: [16] 103 % of control | [17] 102 % of control | dose: 6.25 mg/kg/injection, schedule: Q01DX009 (ip), vehicle: water 114 % of control | [18] 102 % of control | [19] 106 % of control | [20] 93 % of control | [21] 107 % of control | [22] 101 % of control | [23] 116 % of control | dose: 50.0 mg/kg/injection, schedule: Q04DX003 (ip), vehicle: water 102 % of control | dose: 100.0 mg/kg/injection, schedule: Q01DX009 (ip), vehicle: water 94 % of control | dose: 100.0 mg/kg/injection, schedule: Q04DX003 (ip), vehicle: water 108 % of control and 109 % of control

CCCCNC(C)(C)CCl
inactive: dose: 1.56 mg/kg/injection, schedule: Q01DX009 (ip), vehicle: water 95 % of control | [16] 102 % of control | [17] 106 % of control | [18] 88 % of control | [19] 95 % of control | [20] 106 % of control | [21] 111 % of control | [22] 100 % of control and 106 % of control | [23] 104 % of control

CCN(CC)CCNC1=CC(=S)NC(C)(C)C1
inactive: [6] 101 % of control | [3] 89 % of control and 111 % of control | [4] 100 % of control | [5] 88 % of control and 117 % of control
